The values that follow come from BindingDB's records for doi:10.1021/jm049478u (Johnson & Johnson Pharmaceutical Research & Development, 2005).

By IC50 is commonly meant the concentration at which inhibition is half-maximal.

The experiment concerns the target Glycogen synthase kinase-3 beta (Oryctolagus cuniculus). Description: Inhibition of rabbit Glycogen synthase kinase-3 beta.

In the case of `CN(C)CCCn1nc(C2=C(c3cn(-c4ccccc4)c4ccccc34)C(=O)NC2=O)c2ccccc21` [3-[1-(3-Dimethylamino-propyl)-1H-indazol-3-yl]-4-(1-phenyl-1H-indol-3-yl)-pyrrole-2,5-dione], the IC50 was found to be 270 nM.
